Laboratory results taken from patent US10131671B2, “Organic compounds” (Intra-Cellular Therapies, Inc., priority 2014, dated 2018).
Each block holds one compound with its values, some of them ahead of it.

Key:
[1] = Pharmacokinetic analysis in mice: plasma and brain levels after oral dose; type: in vivo, C57BL/6 mice; details: male, C57BL/6, mouse, 10 mg/kg, 10 mg/kg PO, Brain AUC(0-2h)/Plasma AUC(0-2h) or Brain Cmax/Plasma Cmax, read-out: ratio of brain/plasma concentration (B/P)
Method: Animals: Male, C57BL/6 mice (Jackson Labs, 25-30 g in body weight) are provided by Jackson Laboratories. Up to five mice are housed per cage and are maintained under a 12 hour light/dark cycle with access to food and water ad libitum. All procedures for the handling and use of animals follow the guidelines of the Institutional Animal Care and Use Committee (IACUC) of Columbia University, in accordance with NIH guidelines. Eight week-old mice (N=3/dose level or treatment group) are used in the experiments.
Experimental Treatment: Compounds: Selected Compounds of the Invention are evaluated in the present study. Formulation/Vehicle: 3% 1N HCl, 5% Labrasol and 92% of 5% TPGS in 0.05M Citrate buffer (CB, pH 4.0). The test compound(s) are prepared as solution in vehicle and are dosed in a volume of 8 ml/kg.
Compound Preparation: Powdered stocks of the test compound(s) are measured and dissolved in 3% 1N HCl, 5% Labrasol and 92% of 5% TPGS in 0.05M Citrate buffer (CB, pH 4.0). Two or three layers of 3 mm glass beads are added to the bottom of the 10 ml glass tube to promote mixing. […]
Treatment of Animals: Mice (N=3 mice/dose/time point) receive a 10 mg/kg oral (PO) dose of the test compound(s) at time 0. […] Plasma and brain tissue samples are processed and analyzed by the analytical group using LC-MS/MS methods, as described below. […]
Each tube is vortexed, then centrifuged for 20 min at 15000 rpm using a Tomy benchtop centrifuge at 4° C. Standard is an internal standard used for LC-MS/MS quantitation. […]
HPLC and Mass Spectrometric Analysis: Analysis to quantify the concentration of each compound in plasma and brain homogenate is carried out using reverse phase HPLC followed by mass spectrometric detection using the parameters listed:
Each compound is detected and quantified using Multiple Reaction Monitoring (MRM) of positive electrospray mode with a Waters QuattroMicro™ mass spectrometry system.
RESULTS: Plasma and Brain Analysis: All the test compound(s) tested could be detected and analyzed when spiked into control plasma. […]

TAC-induced hypertrophy = assay: Transverse aortic constriction (TAC) mouse model of cardiac hypertrophy; type: in vivo, C59Bl/6 mice; details: for Terminal LV + S/TL Ratio (mean) (TAC ratio): day 1-28 post-surgery, left ventricle+septum weight/tibia length
Method: Animals: C59Bl/6 mice, 20-40 grams, Charles River (Portage, Mich.).
Test Compound of Example 2: Test compound of Example 2 is formulated. The test article dosing solutions are prepared by titrating the free base with 1 mole/mole dilute (0.02N) HCl and diluting the dissolved test compound in the vehicle (0.5% methylcellulose in distilled water) to a final concentration of 0.45 mg/mL and 1.5 mg/mL dosing solution. A supply of formulation for thirty days of dosing are prepared (day 1-6 for 1st surgical cohort).
Reference Test Compound—Losartan potassium: Losartan is obtained by CorDynamics, and prepared on the day of administration by dissolving in the vehicle (0.5% methylcellulose in distilled water) at concentration of 4.5 mg/mL dosing solution. The compound is agitated with a vortex mixer and sonicated to ensure the compound is in solution.
Transverse Aortic Constriction Surgery: Animals are anesthetized with isoflurane using a nose cone connected to a vaporizer that delivers 1-2% isoflurane driven by 100% oxygen. After initial anesthesia with isoflurane, mice receive 1 mg/kg Buprenex SR (1 mg/mL, s.c.) and 10 mg/kg of etomidate (2 mg/mL, i.p.). Animals are intubated for mechanical ventilation. The endotracheal tube is connected to a mechanical ventilator that provides positive-pressure ventilation with 1-2% isoflurane remainder oxygen, set to maintain ˜120 breaths/min with a tidal volume of ˜200 μL. Body temperature is monitored throughout the experiment.
A sternotomy is performed from the manubrium through the second or third rib in order to expose the aorta in the thoracic cavity. The aorta is cleaned of surrounding tissue and the transverse aorta clamped with a titanium microclip, the diameter similar to a 27 G needle. The transverse aorta from mice in Group 1 is cleaned of surrounding tissue but not clamped. The incision is closed, endotracheal tube is removed and animal is allowed to recover.
Mice are dosed twice daily with vehicle or the compound of Example 2 via oral administration with approximately 6 hours between each dose beginning at 1 day post-surgery. Mice are dosed once daily with losartan via oral administration. Body weights are taken after arrival, prior to surgery, prior to dosing on the first day of dosing and every third day of dosing for dose calculation purposes.
On day 28, echocardiographic measurements are performed for all experimental groups. Animals are anesthetized with isoflurane using a nose cone connected to a vaporizer that delivers 1-2% isoflurane driven by 100% oxygen. Mice are placed in the dorsal decubitus position on a warming platform to maintain body temperature at 37±0.5° C. Heart rate is monitored throughout the experiment. Transthoracic two-dimensional, B-mode, M-mode and pulsed Doppler images are acquired with a high-resolution echocardiographic system (VeVo 770, Visual Sonics, Toronto, ON, Canada) equipped with a 30-MHz mechanical transducer.
After echocardiographic measurements, animals are euthanized via CO2 asphyxiation. Hearts and lungs are harvested and gently infused with ice cold krebs-henseleit buffer (Sigma 3753) until clear. Lungs are weighed and the right and left lung are separated. The right and left lung are immediately frozen in liquid nitrogen and placed into separate tubes. The entire heart is weighed. The atria are removed and the left ventricle (with septum) is separated from the right ventricle. The ventricles are weighed separately before being divided into two pieces. Ventricle pieces are frozen in liquid nitrogen and placed into separate tubes. Liquid nitrogen samples are stored in a freezer set to maintain approximately −80° C. until shipped on dry ice to the Sponsor for possible future analysis.
The left tibia is removed and separated from the soft tissue. Longitudinal measurement will be obtained with a digital micrometer. The dissected tibia is disposed of with the rest of the carcass.

[2] = test system: isoproterenol-induced cardiac hypertrophy; assay: Isoproterenol induced cardiac hypertrophy mouse model; type: in vivo, 129S1/SvlmJ mice; details: for HW/TL Ratio (mean): isoproterenol 10 mg/kg s.c. days 4-9, heart weight/tibia length on day 10
Method: The compound of Example 2 is tested in a mouse model where the mice are treated with isoproterenol. Such a model can be useful for extrapolating to diseases or disorders involving an enlargement of the heart or cardiac tissue, e.g., congestive heart disease. Animals: 129S1/SvlmJ mice, 20-40 grams, Jackson Laboratories (Bar Harbor, Me.). Test Compound of Example 2: Test compound of Example 2 is supplied as a powder. The test article dosing solutions are prepared on the day of administration by dissolving the test compound in the vehicle (0.9% sodium chloride for injection, U.S.P.) at concentration of 2.0 mg/mL stock/dosing solution. The compound are agitated with a vortex mixer and sonicated to ensure the compound is in solution. The 2.0 mg/mL solution is diluted with vehicle to create the 0.2 mg/mL and the 0.6 mg/mL dosing solutions. Dosing solutions are stored in a refrigerator between the daily doses and are allowed to return to room temperature before the evening dose. Test Compound Isoproterenol: Test compound isoproterenol is supplied by Sigma (St. Louis, Mo.) as a powder. The test article dosing solutions are prepared on the day of administration by dissolving the test compound in the vehicle (0.9% sodium chloride for injection, U.S.P.) at concentration of 2.0 mg/mL. The compound is agitated with a vortex mixer and sonicated to ensure the compound is in solution. [table] Mice in group 1 and 2 are dosed daily via subcutaneous administration. On days 7, 10 and 14, 2 animals from groups 1 and 2 are weighed and then euthanized via CO2 asphyxiation. Hearts are harvested and gently infused with ice cold saline until clear. The entire heart is weighed. The atria are removed and the left ventricle (with septum) is separated from the right ventricle. The ventricles are weighed separately. The left tibia is removed and separated from the soft tissue. Longitudinal measurement are obtained with a digital micrometer. Mice in groups 3-6 are dosed once/day with isoproterenol subcutaneously from Days 4-9 and twice/day with vehicle or test compound via intraperitoneal administration from Days 1 to 9. On Day 10 (based on the results from Groups 1 and 2) animals from each group are weighed and then euthanized via CO2 asphyxiation. Hearts are harvested and gently infused with ice cold krebs-henseleit buffer (Sigma 3753) until clear. The entire heart is weighed. The atria are removed and the left ventricle (with septum) is separated from the right ventricle. The ventricles are weighed separately. The ventricles are stored in ice cold krebs-henseleit buffer for approximately 15 minutes and then transferred to 10% buffered formalin at room temperature until possible shipment for possible future analysis. The left tibia is removed and separated from the soft tissue. Longitudinal measurement is obtained with a digital micrometer.

Kp [1]: 4.5 to 4.8
SMILES: CN1C(=O)c2c(nn(Cc3ccc(C(F)(F)F)cc3)c2Nc2ccccc2)N2C1=N[C@@H]1CCC[C@@H]12 [(6aR,9aS)-3-(phenylamino)-5,6a,7,8,9,9a-hexahydro-5-methyl-2-(4-(trifluoromethyl)-benzyl)-cyclopent[4,5]imidazo[1,2-a]pyrazolo[4,3-e]pyrimidin-4(2H)-one, reference compound]

Kp [1]: ≤ 0.1
SMILES: CN1C(=O)c2c(nn(Cc3ccncc3)c2Nc2ccc(F)cc2)N2CC(C)(C)N=C12 [Example 1, 3-((4-fluorophenyl)amino)-5,7,7-trimethyl-2-(pyridin-4-ylmethyl)-7,8-dihydro-2H-imidazo[1,2-a]pyrazolo[4,3-e]pyrimidin-4(5H)-one]

SMILES: Cc1ncc(Cn2nc3c(c2Nc2ccc(F)cc2)C(=O)N(C)C2=NC(C)(C)CN23)cn1 [Example 2, 3-((4-fluorophenyl)amino)-5,7,7-trimethyl-2-((2-methylpyrimidin-5-yl)methyl)-7,8-dihydro-2H-imidazo[1,2-a]pyrazolo[4,3-e]pyrimidin-4(5H)-one]
effect on cardiac hypertrophy induced by the TAC constriction (TAC-induced hypertrophy; 3 mg/kg): tendency to reverse the cardiac hypertrophy
Terminal LV + S/TL Ratio (mean) (TAC ratio) (TAC-induced hypertrophy; 3 mg/kg oral twice/day): 5.8 mg/mm
effect on cardiac hypertrophy induced by the TAC constriction (TAC-induced hypertrophy; 10 mg/kg): tendency to reverse the cardiac hypertrophy
Terminal LV + S/TL Ratio (mean) (TAC ratio) (TAC-induced hypertrophy; 10 mg/kg oral twice/day): 5.8 mg/mm
difference in TAC ratio between the sham group and the treated groups (TAC-induced hypertrophy; sham vs compound groups): not statistically significant
reduction in the heart weight/tibia length (HW/TL) ratio compared to vehicle ([2]; 1 mg/kg): ~8%
HW/TL Ratio (mean) ([2]; 1 mg/kg twice/day days 1-9): 8.49 mg/mm
decrease of (LV+RV)/TL ratio (left ventricle plus right ventricle weight/tibia length) compared to vehicle ([2]; 3 mg/kg): 10%
prevention of cardiac hypertrophy ([2]; 3 mg/kg): significantly prevents cardiac hypertrophy
reduction in the heart weight/tibia length (HW/TL) ratio compared to vehicle ([2]; 3 mg/kg): ~12.5%
HW/TL Ratio (mean) ([2]; 3 mg/kg twice/day days 1-9): 8.08 mg/mm
decrease of (LV+RV)/TL ratio (left ventricle plus right ventricle weight/tibia length) compared to vehicle ([2]; 10 mg/kg): 10%
prevention of cardiac hypertrophy ([2]; 10 mg/kg): significantly prevents cardiac hypertrophy
reduction in the heart weight/tibia length (HW/TL) ratio compared to vehicle ([2]; 10 mg/kg): ~12.5%
HW/TL Ratio (mean) ([2]; 10 mg/kg twice/day days 1-9): 8.1 mg/mm
effect on the development of isoproterenol-induced cardiac hypertrophy ([2]; up to 10 mg/kg): statistically significant effect

Kp [1]: < 0.05
SMILES: CN1C(=O)c2c(nn(Cc3ccc(S(N)(=O)=O)cc3)c2Nc2ccc(F)cc2)N2CC(C)(C)N=C12 [Example 7, 4-((3-((4-fluorophenyl)amino)-5,7,7-trimethyl-4-oxo-4,5,7,8-tetrahydro-2H-imidazo[1,2-a]pyrazolo[4,3-e]pyrimidin-2-yl)methyl)benzenesulfonamide]

SMILES: CCCCc1nc(Cl)c(CO)n1Cc1ccc(-c2ccccc2-c2nn[nH]n2)cc1 [Losartan, Losartan potassium, reference compound]
Terminal LV + S/TL Ratio (mean) (TAC ratio) (TAC-induced hypertrophy; 40 mg/kg (as printed in the results table) oral once/day): 6.2 mg/mm
difference in TAC ratio between the vehicle group and the treated group (TAC-induced hypertrophy; vehicle vs Losartan group): not statistically significant
